{"source": "patent US20250262170A1", "about": "“COMBINATIONS OF BETA 2-ADRENERGIC RECEPTOR AGONISTS AND BETA 3-ADRENERGIC RECEPTOR AGONISTS, AND MEDICAL USES THEREOF” (ATROGI AB, priority 2022, published 2025)"}
{"target": "T1, human β3-adrenergic receptor (Homo sapiens, UniProt P13945)", "T1 construct": "expressed in transfected cells", "T1 sequence (P13945 whole entry)": "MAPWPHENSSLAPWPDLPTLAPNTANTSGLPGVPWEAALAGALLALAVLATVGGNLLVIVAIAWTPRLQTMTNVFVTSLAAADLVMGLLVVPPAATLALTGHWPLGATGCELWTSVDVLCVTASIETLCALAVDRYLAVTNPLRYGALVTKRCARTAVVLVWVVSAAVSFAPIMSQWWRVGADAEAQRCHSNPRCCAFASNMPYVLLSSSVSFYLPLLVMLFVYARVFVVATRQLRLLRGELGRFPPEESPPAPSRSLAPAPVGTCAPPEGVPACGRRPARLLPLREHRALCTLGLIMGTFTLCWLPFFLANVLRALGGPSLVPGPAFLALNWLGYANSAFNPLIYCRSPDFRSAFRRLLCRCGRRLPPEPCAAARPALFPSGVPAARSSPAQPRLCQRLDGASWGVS", "experiment": "cAMP levels in CHO-K1 cells expressing the human β3-adrenergic receptor", "assay_type": "cell-based", "settings": "10 μM, 15 min", "description": "(§1) CHO-K1 cells stably expressing the human β3-adrenergic receptors were serum-starved overnight and stimulated with an agonist, final concentration 1×10^−5 M, for 15 min in stimulation buffer (HBSS supplemented with 1% BSA, 5 mM HEPES and 1 mM IBMX, pH 7.4) The medium was then aspirated and to end the reaction, 100 μL of 95% EtOH was added to each well of the 24-well plate and cells were kept at −20° C. overnight. The next day EtOH was allowed to evaporate and 250 μL of lysis buffer (1% BSA, 5 mM HEPES and 0.3% Tween-20, pH 7.4) was added to each well. The plate was kept at −80° C. for 30 min and thawed in room temperature. Intracellular cAMP levels were detected using an alpha screen cAMP kit (6760635D from Perkin Elmer). The activity for each compound is compared to that of isoproterenol."}
{"smiles": "CCS(=O)(=O)N[C@H]1CC[C@@H](CC(C)(C)NC[C@H](O)c2cncc(F)c2)CC1", "note": "[Compound 18, N-((cis)-4-(2-(((R)-2-(5-fluoropyridin-3-yl)-2-hydroxyethyl)amino)-2-methylpropyl)cyclo-hexyl)ethanesulfonamide]", "Activity (intracellular cAMP compared to that of isoproterenol)": "+ +"}
{"target": "T1, human β3-adrenergic receptor", "experiment": "cAMP levels in CHO-K1 cells expressing the human β3-adrenergic receptor", "assay_type": "cell-based", "settings": "CHO-K1, 0.25 h, 15 min, read-out: Activity (intracellular cAMP compared to that of isoproterenol)", "description": "as §1", "units": {"Emax at 10 µM": "%"}}
{"smiles": "CCS(=O)(=O)N[C@H]1CC[C@H](CC(C)(C)NC[C@H](O)c2cccc(F)c2)CC1", "note": "[Compound 17, N-((trans)-4-(2-(((R)-2-(3-fluorophenyl)-2-ethyl)amino)-2-methylpropyl)cyclohexyl)-ethanesulfonamide]", "Emax at 10 µM": "> 75"}
{"smiles": "CCCCS(=O)(=O)N[C@H]1CC[C@H](CC(C)(C)NC[C@H](O)c2cncc(F)c2)CC1", "note": "[Compound 19, N-((trans)-4-(2-(((R)-2-(5-fluoropyridin-3-yl)-2-hydroxyethyl)amino)-2-methylpropyl)cyclohexyl)-butane-1-sulfonamide]", "Emax at 10 µM": "> 75"}
{"smiles": "CC(C)CS(=O)(=O)N[C@H]1CC[C@H](CC(C)(C)NC[C@H](O)c2cncc(F)c2)CC1", "note": "[Compound 20, N-((trans)-4-(2-(((R)-2-(5-fluoropyridin-3-yl)-2-hydroxyethyl)amino)-2-methylpropyl)cyclohexyl)-2-methylpropane-1-sulfonamide]", "Emax at 10 µM": "> 75"}
{"smiles": "CCS(=O)(=O)N[C@H]1CC[C@H](CC(C)(C)NC[C@H](O)c2cncc(F)c2)CC1", "note": "[Compound 21, N-((trans)-4-(2-(((R)-2-(5-fluoropyridin-3-yl)-2-hydroxyethyl)amino)-2-methylpropyl)cyclohexyl)-ethanesulfonamide]", "Emax at 10 µM": "> 75"}
{"smiles": "CC(C)(C[C@H]1CC[C@H](S(N)(=O)=O)CC1)NC[C@H](O)c1cccc(F)c1", "note": "[Compound 22, (trans)-4-(2-(((R)-2-(3-fluorophenyl)-2-hydroxy-ethyl)amino)-2-methyl-propyl)cyclohexane-1-sulfonamide]", "Emax at 10 µM": "> 75"}
{"smiles": "CC(C)(C[C@H]1CC[C@H](NS(C)(=O)=O)CC1)NC[C@H](O)c1ccc(F)c(N)c1F", "note": "[Compound 23, N-((trans)-4-(2-(((R)-2-(3-amino-2,4-difluorophenyl)-2-hydroxyethyl)amino)-2-methylpropyl)cyclohexyl)-methanesulfonamide]", "Emax at 10 µM": "> 75"}
{"smiles": "CS(=O)(=O)N[C@H]1CC[C@H](C[C@@H]2CC[C@H]([C@H](O)c3cccc(F)c3)N2)CC1", "note": "[Compound 24, N-((trans)-4-(((2S,5R)-5-((R)-(3-fluorophenyl)-(hydroxy)methyl)pyrrolidin-2-yl)methyl)cyclohexyl)-methanesulfonamide]", "Emax at 10 µM": "> 75"}
{"smiles": "CC(C)(C[C@H]1CC[C@H](NS(=O)(=O)C2CC2)CC1)NC[C@H](O)c1cccc(F)c1", "note": "[Compound 25, N-((trans)-4-(2-(((R)-2-(3-fluorophenyl)-2-hydroxy-ethyl)amino)-2-methyl-propyl)cyclohexyl)cyclo-propanesulfonamide]", "Emax at 10 µM": "> 75"}
{"smiles": "CNS(=O)(=O)[C@H]1CC[C@H](CC(C)(C)NC[C@H](O)c2cccc(F)c2)CC1", "note": "[Compound 27, (trans)-4-(2-(((R)-2-(3-fluorophenyl)-2-hydroxy-ethyl)amino)-2-methy-propyl)-N-methyl-cyclohexane-1-sulfonamide]", "Emax at 10 µM": "> 75"}
{"smiles": "COCC12CC(C1)[C@H]([C@H](O)c1cccc(F)c1)N2", "note": "[Compound 29, (R)-(3-fluorophenyl)((R)-1-(methoxymethyl)-2-aza-bicyclo[2.1.1]hexan-3-yl)-methanol]", "Emax at 10 µM": "50 to 75"}
{"smiles": "CC(C)(C[C@H]1CC[C@H](NS(=O)(=O)C(F)(F)F)CC1)NC[C@H](O)c1cccc(F)c1", "note": "[Compound 30, 1,1,1-trifluoro-N-((trans)-4-(2-(((R)-2-(3-fluorophenyl)-2-hydroxyethyl)amino)-2-methylpropyl)cyclohexyl)-methanesulfonamide]", "Emax at 10 µM": "> 75"}
{"smiles": "CCCS(=O)(=O)N[C@H]1CC[C@H](CC(C)(C)NC[C@H](O)c2cccc(F)c2)CC1", "note": "[Compound 31, N-((trans)-4-(2-(((R)-2-(3-fluorophenyl)-2-hydroxy-ethyl)amino)-2-methyl-propyl)cyclohexyl)propane-1-sulfonamide]", "Emax at 10 µM": "> 75"}
